Test results published in ChEMBL document CHEMBL3102774, “Semisynthesis of salviandulin E analogues and their antitrypanosomal activity” (Bioorg Med Chem Lett, 2014).
Converted amounts (≈) assume the structure as drawn.

Columns and labels:
[1] = tested on: Trypanosoma brucei brucei; assay: Antitrypanosomal activity against Trypanosoma brucei brucei GUTat 3.1 after 72 hrs by AlamarBlue assay; assay type: functional, organism-based; conditions: GUTat 3.1, 72 h
[2] = Selectivity index, ratio of IC50 for human MRC5 cells to IC50 for Trypanosoma brucei brucei GUTat 3.1; assay type: toxicity, cell-based; conditions: read-out: Ratio IC50
MRC5 = assay: Cytotoxicity against human MRC5 cells; assay type: cell-based

Question: With CCCC(=O)OC1=CC2=C(C)C3=C(C=C[C@]24COC(=O)[C@@H]4C1)C(=O)O[C@H]3c1ccoc1 as the molecule, how does the IC50 [1] read?
Answer: The IC50 was 3.89 µg/mL (≈ 9.21 µM).

Question: What about the selectivity ratio [2] of the same molecule?
Answer: Its selectivity ratio is 5.54.

Question: And the IC50 (MRC5)?
Answer: The IC50 was 21.6 µg/mL (≈ 51 µM).

Question: Which IC50 [1] does the source give for CCCC(=O)O[C@H]1C=C2C(=O)OC[C@]23C=CC2=C(C(C)=C3C1)[C@H](c1ccoc1)OC2=O here?
Answer: The IC50 was 1.04 µg/mL (≈ 2.46 µM).

Question: What about the selectivity ratio [2] of the same molecule?
Answer: Its selectivity ratio is 1.01.

Question: What about the IC50 (MRC5) of the same molecule?
Answer: Its IC50 is 1.05 µg/mL (≈ 2.49 µM).

Question: Which results are given for CC(=O)OC1=CC2=C(C)C3=C(C=C[C@]24COC(=O)[C@@H]4C1)C(=O)O[C@H]3c1ccoc1?
Answer: IC50 [1]: 4.29 µg/mL (≈ 10.9 µM); selectivity ratio [2]: 4.14; IC50 (MRC5): 17.8 µg/mL (≈ 45.1 µM)

Question: Which IC50 [1] does the source give for CC1=C2C[C@@H](O)C=C3C(=O)OC[C@]32C=CC2=C1[C@H](c1ccoc1)OC2=O here?
Answer: The IC50 was 0.72 µg/mL (≈ 2.04 µM).

Question: And the selectivity ratio [2]?
Answer: The selectivity ratio was 1.17.

Question: What about the IC50 (MRC5) of the same molecule?
Answer: The IC50 was 0.84 µg/mL (≈ 2.38 µM).

Question: For CC1=C2C=CC[C@H]3C(=O)OC[C@@]23C=CC2=C1[C@H](c1ccoc1)OC2=O, which IC50 [1] is on record?
Answer: Its IC50 is > 12.5 µg/mL.

Question: With CC1=C2C[C@@H](OC(=O)Nc3ccccc3)C=C3C(=O)OC[C@]32C=CC2=C1[C@H](c1ccoc1)OC2=O as the molecule, how does the IC50 [1] read?
Answer: The IC50 was 7.17 µg/mL (≈ 15.2 µM).

Question: What about the selectivity ratio [2] of the same molecule?
Answer: The selectivity ratio was 2.41.

Question: What about the IC50 (MRC5) of the same molecule?
Answer: Its IC50 is 17.3 µg/mL (≈ 36.6 µM).

Question: Which selectivity ratio [2] does the source give for NCCCC(N)(C(=O)O)C(F)F (stereo not given) [EFLORNITHINE] here?
Answer: The selectivity ratio was > 44.

Question: What about the IC50 (MRC5) of the same molecule?
Answer: The IC50 was > 100 µg/mL.

Question: With CC1=C2CCC=C3C(=O)OC[C@]32CCC2=C1[C@H](c1ccoc1)OC2=O as the molecule, how does the IC50 [1] read?
Answer: Its IC50 is > 12.5 µg/mL.

Question: What about the IC50 (MRC5) of the same molecule?
Answer: The IC50 was 16.2 µg/mL (≈ 47.8 µM).

Question: With CCNC(=O)O[C@H]1C=C2C(=O)OC[C@]23C=CC2=C(C(C)=C3C1)[C@H](c1ccoc1)OC2=O as the molecule, how does the IC50 [1] read?
Answer: The IC50 was 0.2 µg/mL (≈ 0.472 µM).

Question: What about the selectivity ratio [2] of the same molecule?
Answer: The selectivity ratio was 0.9.

Question: What about the IC50 (MRC5) of the same molecule?
Answer: The IC50 was 0.18 µg/mL (≈ 0.425 µM).

Question: Which IC50 [1] does the source give for COCO[C@@H]1CC2=C(C)C3=C(C=C[C@]24COC(=O)[C@@H]4C1)C(=O)O[C@H]3c1ccoc1 here?
Answer: Its IC50 is > 12.5 µg/mL.

Question: Which results are given for CCCNC(=O)O[C@@H]1CC2=C(C)C3=C(C=C[C@]24COC(=O)[C@@H]4C1)C(=O)O[C@H]3c1ccoc1?
Answer: IC50 [1]: 7.77 µg/mL (≈ 17.7 µM); selectivity ratio [2]: 8.51; IC50 (MRC5): 66.2 µg/mL (≈ 151 µM)

Question: Which results are given for CCCCNC(=O)O[C@H]1C=C2C(=O)OC[C@]23C=CC2=C(C(C)=C3C1)[C@H](c1ccoc1)OC2=O?
Answer: IC50 [1]: 6.08 µg/mL (≈ 13.5 µM); selectivity ratio [2]: 7.29; IC50 (MRC5): 44.3 µg/mL (≈ 98.1 µM)

Question: For COCO[C@H]1C=C2C(=O)OC[C@]23C=CC2=C(C(C)=C3C1)[C@H](c1ccoc1)OC2=O, which IC50 [1] is on record?
Answer: Its IC50 is 1.15 µg/mL (≈ 2.9 µM).

Question: And the selectivity ratio [2]?
Answer: Its selectivity ratio is 1.73.

Question: What about the IC50 (MRC5) of the same molecule?
Answer: The IC50 was 2 µg/mL (≈ 5.05 µM).

Question: For Cc1ccc(C(=O)Nc2ccc(S(=O)(=O)O)c3cc(S(=O)(=O)O)cc(S(=O)(=O)O)c23)cc1NC(=O)c1cccc(NC(=O)Nc2cccc(C(=O)Nc3cc(C(=O)Nc4ccc(S(=O)(=O)O)c5cc(S(=O)(=O)O)cc(S(=O)(=O)O)c45)ccc3C)c2)c1 [SURAMIN], which selectivity ratio [2] is on record?
Answer: Its selectivity ratio is > 63.

Question: And the IC50 (MRC5)?
Answer: Its IC50 is > 100 µg/mL.

Question: For CCNC(=O)O[C@@H]1CC2=C(C)C3=C(C=C[C@]24COC(=O)[C@@H]4C1)C(=O)O[C@H]3c1ccoc1, which IC50 [1] is on record?
Answer: Its IC50 is > 12.5 µg/mL.

Question: Which results are given for CCC(=O)OC1=CC2=C(C)C3=C(C=C[C@]24COC(=O)[C@@H]4C1)C(=O)O[C@H]3c1ccoc1?
Answer: IC50 [1]: 5.56 µg/mL (≈ 13.6 µM); selectivity ratio [2]: 4.06; IC50 (MRC5): 22.6 µg/mL (≈ 55.3 µM)

Question: Which IC50 [1] does the source give for CC(=O)O[C@H]1C=C2C(=O)OC[C@]23C=CC2=C(C(C)=C3C1)[C@H](c1ccoc1)OC2=O here?
Answer: Its IC50 is 0.69 µg/mL (≈ 1.75 µM).

Question: What about the selectivity ratio [2] of the same molecule?
Answer: The selectivity ratio was 1.22.

Question: And the IC50 (MRC5)?
Answer: The IC50 was 0.84 µg/mL (≈ 2.13 µM).

Question: With CCC(=O)O[C@@H]1CC2=C(C)C3=C(C=C[C@]24COC(=O)[C@@H]4C1)C(=O)O[C@H]3c1ccoc1 as the molecule, how does the IC50 [1] read?
Answer: Its IC50 is 5.33 µg/mL (≈ 13 µM).

Question: And the selectivity ratio [2]?
Answer: Its selectivity ratio is 11.9.

Question: What about the IC50 (MRC5) of the same molecule?
Answer: The IC50 was 63.5 µg/mL (≈ 155 µM).

Question: Which results are given for CCCC(=O)O[C@@H]1CC2=C(C)C3=C(C=C[C@]24COC(=O)[C@@H]4C1)C(=O)O[C@H]3c1ccoc1?
Answer: IC50 [1]: 0.055 µg/mL (≈ 0.13 µM); selectivity ratio [2]: 1240; IC50 (MRC5): 68 µg/mL (≈ 160 µM)

Question: Which IC50 [1] does the source give for CCC(=O)O[C@H]1C=C2C(=O)OC[C@]23C=CC2=C(C(C)=C3C1)[C@H](c1ccoc1)OC2=O here?
Answer: The IC50 was 2.39 µg/mL (≈ 5.85 µM).

Question: What about the selectivity ratio [2] of the same molecule?
Answer: The selectivity ratio was 0.59.

Question: What about the IC50 (MRC5) of the same molecule?
Answer: The IC50 was 1.41 µg/mL (≈ 3.45 µM).

Question: Which IC50 [1] does the source give for CC1=C2C[C@@H](O)C[C@H]3C(=O)OC[C@@]23C=CC2=C1[C@H](c1ccoc1)OC2=O here?
Answer: The IC50 was > 12.5 µg/mL.

Question: Which results are given for CC1=C2C[C@@H](OC(=O)Nc3ccccc3)C[C@H]3C(=O)OC[C@@]23C=CC2=C1[C@H](c1ccoc1)OC2=O?
Answer: IC50 [1]: 10.5 µg/mL (≈ 22.3 µM); selectivity ratio [2]: > 9.5; IC50 (MRC5): > 100 µg/mL

Question: Which IC50 [1] does the source give for N=C(N)c1ccc(OCCCCCOc2ccc(C(=N)N)cc2)cc1 [PENTAMIDINE] here?
Answer: The IC50 was 0.0017 µg/mL (≈ 0.00499 µM).

Question: And the selectivity ratio [2]?
Answer: Its selectivity ratio is 3350.

Question: With CC(=O)O[C@@H]1CC2=C(C)C3=C(C=C[C@]24COC(=O)[C@@H]4C1)C(=O)O[C@H]3c1ccoc1 as the molecule, how does the IC50 [1] read?
Answer: The IC50 was 7.73 µg/mL (≈ 19.5 µM).

Question: What about the selectivity ratio [2] of the same molecule?
Answer: Its selectivity ratio is > 12.9.

Question: What about the IC50 (MRC5) of the same molecule?
Answer: The IC50 was > 100 µg/mL.
